Data on 16 compounds can be found in patent publication US20020173468A1, “MODIFIED CYTOSTATIC AGENTS” (priority 1996, published 2002).

Counter-ions that a name gives are not always drawn.

Type in all cases: cell-based
Assay [1] concerns SW 480 human colonic tumour cell line. Briefly: Growth inhibition test (MTT) for cytotoxic properties, SW 480. The settings on record: SW 480 cells. As to the method: (§1) 1. Growth Inhibition Test for the Determination of Cytotoxic Properties
(§2) They were then trypsinized and taken up in RPMI plus 10% FCS to give a cell count of 50,000 cells/ml. 100 μl of cell suspension/well were added to a 96 microwell plate and incubated for 1 day at 37° C. in a CO2 incubator. A further 100 μl of RPMI medium and 1 μl of DMSO were then added with the test substances. The growth was checked after day 3 and day 6. To do this, 40 μl of MTT solution (3-(4,5-dimethylthiazol-2-yl)-2,5-diphenyl-tetrazolin bromide) were added to each microwell at a starting concentration of 5 mg/ml of H2O. Incubation was carried out at 37° C. for 5 hours in the CO2 incubator. The medium was then aspirated and 100 μl of i-propanol/well were added. After shaking for 30 min with 100 μl of H2O, the extinction was measured at 540 nm using a Titertek Multiskan MCC/340 (flow).
(§3) The cytotoxic action is indicated in Table 1 as an IC50 value in each case for the SW 480 and HT 29 and B16F10 cell lines: […]

In assay [2] the test system is HT 29 human colonic tumour cell line. Briefly: Growth inhibition test (MTT) for cytotoxic properties, HT 29. The conditions noted are these: HT 29 cells. As to the method:
as §1, §2, §3

In assay [3] the test system is B16F10 mouse melanoma cell line. Put plainly: Growth inhibition test (MTT) for cytotoxic properties, B16F10. The settings on record: B16F10 cells. How it is done: as §1, §2, §3
The subject of assay [4] is mouse bone marrow stem cells. Put plainly: Inhibition of the CSF-induced proliferation of mouse bone marrow stem cells (colony formation). The settings on record: recombinant murine GM-CSF, 7 days; for IC50: Mus musculus, 168 h. How it is done: 2. Haematopoietic Activity of Conjugates in Comparison with the Basic Active Compound
Bone marrow cells were rinsed from mouse femurs. 10^5 cells were incubated in McCoy 5A medium (0.3% agar) together with recombinant murine GM-CSF (Genzyme; stem cell colony formation) and the substances (10^−4 to 100 μg/ml) at 37° C. and 7% CO2. 7 days later, the colonies ([…]50 cells) and clusters (17-50 cells) were counted.

For the compound `CCC1(OC(=O)C(C)NC(=O)C(CCCCNC(=S)Nc2ccc(O)cc2)NC(=S)Nc2ccc(O)cc2)C(=O)OCc2c1cc1n(c2=O)Cc2cc3ccccc3nc2-1` (stereo not drawn) [4.9), 20-O-[N^α,N^ε-bis-(4-Hydroxy-phenylamino-thiocarbonyl)-lysyl-alanyl]-camptothecin], the IC50 (usually the concentration that inhibits the measured activity by half) in assay [1] was determined as 0.02 µM; in assay [2], 0.015 µM; in assay [3], 0.2 µM. For the same compound, in assay [4], the “IC50, inhibition of the CSF-induced proliferation of mouse bone marrow stem cells” value is 22 ng/mL.

Turning to `N[C@@H]1C=CC[C@@H]2CN(c3c(F)cc4c(=O)c(C(=O)O)cn(C5CC5)c4c3Cl)C[C@@H]21` (racemic) [Quinolone-a, 7-[(3aRS, 4RS, 7aSR)-4-amino-1,3,3a,4,7,7a-hexahydro-iso-indol-2-yl]-8-chloro-1-cyclopropyl-6-fluoro-1,4-dihydro-4-oxo-3-quinolinecarboxylic acid, reference compound], in assay [4], the IC50 was found to be 0.2 ng/mL.

As for `Cl.NCCCCC(NC(=S)Nc1ccc(O)cc1)C(=O)NC1C=CCC2CN(c3c(F)cc4c(=O)c(C(=O)O)cn(C5CC5)c4c3Cl)CC21` (racemic) [2.4), N-[N^α-(4-Hydroxy-phenylamino-thiocarbonyl)-lysyl]-quinolone-a, hydrochloride], the values for the IC50 in assay [1], in assay [2] and in assay [3] were 0.8 µM, 0.9 µM and 1 µM, respectively. The “IC50, inhibition of the CSF-induced proliferation of mouse bone marrow stem cells” value in assay [4] was 60.0 ng/mL.

For `CCC1(OC(=O)[C@@H](NC(=O)[C@H](CCCCN)NC(=S)Nc2ccc(OC)cc2)C(C)C)C(=O)OCc2c1cc1n(c2=O)Cc2cc3ccccc3nc2-1` (stereo partly drawn) [4.14), 20-O-[N^α-(4-Methoxy-phenylamino-thiocarbonyl)-lysyl-valyl]-camptothecin, hydrochloride], the IC50 in assay [1] worked out at 0.16 µM; in assay [2], 0.075 µM; in assay [3] it was 0.75 µM.

With `NCCCCC(NC(=S)Nc1ccc(C(=O)O)cc1)C(=O)NC1C=CCC2CN(c3c(F)cc4c(=O)c(C(=O)O)cn(C5CC5)c4c3Cl)CC21` (racemic) [2.9), N-[N^α-(4-Carboxy-phenylamino-thiocarbonyl)-lysyl]-quinolone-a], the results for the concentration for half-maximal inhibition (IC50) in assay [1], in assay [2] and in assay [3] were 2 µM, 2 µM and 1 µM, respectively.

`CCC1(OC(=O)[C@@H](C)NC(=O)C(CCCCNC(=S)Nc2ccc(O)cc2)NC(=S)Nc2ccc(O)cc2)C(=O)OCc2c1cc1n(c2=O)Cc2cc3ccccc3nc2-1` (stereo partly drawn) [4.10), 20-O-[N^α,N^ε-bis-(4-Hydroxy-phenylamino-thiocarbonyl)-lysyl-D-alanyl]-camptothecin]: the IC50 amounted to 0.02 µM in assay [1], 0.01 µM in assay [2] and 0.2 µM in assay [3].

Consider `CCC1(OC(=O)C(NC(=O)C(CCCCN)NC(=S)Nc2ccc([N+](=O)[O-])cc2)C(C)C)C(=O)OCc2c1cc1n(c2=O)Cc2cc3ccccc3nc2-1` (stereo not drawn) [4.16), 20-O-[N^α-(4-Nitro-phenylamino-thiocarbonyl)-lysyl-valyl]-camptothecin, hydrochloride], for which the IC50 in assay [1] amounted to 0.15 µM; in assay [2], 0.12 µM; in assay [3], 0.6 µM.

Regarding `CC[C@@]1(OC(=O)[C@@H](NC(=O)[C@H](CCCCN)NC(=S)Nc2ccccc2)C(C)C)C(=O)OCc2c1cc1n(c2=O)Cc2cc3ccccc3nc2-1` [4.7), 20-O-[N^α-(Phenylamino-thiocarbonyl)-lysyl-valyl]-camptothecin, hydrochloride], the IC50 in assay [1] amounted to 0.1 µM; in assay [2] it was 0.06 µM; in assay [3], 0.3 µM.

As to `CCC1(OC(=O)C(CO)NC(=O)C(CCCCNC(=S)Nc2ccc(O)cc2)NC(=S)Nc2ccc(O)cc2)C(=O)OCc2c1cc1n(c2=O)Cc2cc3ccccc3nc2-1` (stereo not drawn) [4.23), 20-O-[N^α,N^ε-bis-(4-Hydroxy-phenylamino-thiocarbonyl)-lysyl-seryl]-camptothecin], the IC50 in assay [1] came out at 0.08 µM; in assay [2], 0.07 µM; in assay [3], 0.15 µM.

Regarding `CCC1(OC(=O)C(CC(C)C)NC(=O)C(CCCCN)NC(=S)Nc2ccc(O)cc2)C(=O)OCc2c1cc1n(c2=O)Cc2cc3ccccc3nc2-1` (stereo not drawn) [4.2), 20-O-[N^α-(4-Hydroxy-phenylamino-thiocarbonyl)-lysyl-leucyl]-camptothecin, hydrochloride], the IC50 in assay [1] was 0.07 µM; in assay [2], 0.06 µM; in assay [3], 0.3 µM.

In the case of `CC[C@@]1(O)C(=O)OCc2c1cc1n(c2=O)Cc2cc3ccccc3nc2-1` [Camptothecin, 20(S)-Camptothecin, reference compound], the IC50 in assay [4] is 0.4 ng/mL.

As for `CCC1(OC(=O)C(CC(C)C)NC(=O)C(CCCCN)NC(=S)Nc2ccc(O)cc2)C(=O)OCc2c1cc1n(c2=O)Cc2cc3ccccc3nc2-1` (stereo not drawn) [4.20), 20-O-[N^α-(4-Hydroxy-phenylamino-thiocarbonyl)-lysyl-leucyl]-camptothecin, hydrochloride], the IC50 was determined as 0.07 µM in assay [1], 0.06 µM in assay [2] and 0.3 µM in assay [3].

Consider `CC[C@@]1(OC(=O)C(NC(=O)C(CCCCN)NC(=S)Nc2ccc(Cl)cc2)C(C)C)C(=O)OCc2c1cc1n(c2=O)Cc2cc3ccccc3nc2-1` (stereo partly drawn) [4.6), 20-O-[N^α-(4-Chloro-phenylamino-thiocarbonyl)-lysyl-valyl]-camptothecin, hydrochloride], for which the IC50 was determined as 0.2 µM in assay [1], 0.15 µM in assay [2] and 0.5 µM in assay [3].

Turning to `CC(NC(=S)Nc1ccc(O)cc1)C(=O)NC1C=CCC2CN(c3c(F)cc4c(=O)c(C(=O)O)cn(C5CC5)c4c3Cl)CC21` (racemic) [2.1), N-[N-(4-Hydroxy-phenylamino-thiocarbonyl)-alanyl]-quinolone-a], the results for the IC50 in assay [1], in assay [2] and in assay [3] were 20 µM, 9 µM and 9 µM, respectively.

Regarding `C[C@@H](NC(=O)[C@H](CCCCN)NC(=S)Nc1ccc(O)cc1)C(=O)Nc1ccc2nc3n(c(=O)c2c1)Cc1ccccc1-3` [1.4), N-[N^α-(4-Hydroxy-phenylamino-thiocarbonyl)-lysyl-D-alanyl]-batracylin], the IC50 stood at 40 µM in assay [1], 40 µM in assay [2] and 30 µM in assay [3].

`CCC1(OC(=O)[C@H](Cc2ccccc2)NC(=O)[C@H](CCCCNC(=S)Nc2ccc(O)cc2)NC(=S)Nc2ccc(O)cc2)C(=O)OCc2c1cc1n(c2=O)Cc2cc3ccccc3nc2-1` (stereo partly drawn) [4.11), 20-O-[N^α,N^ε-bis-(4-Hydroxy-phenylamino-thiocarbonyl)-lysyl-phenylalanyl]-camptothecin]: the results for the IC50 in assay [1], in assay [2] and in assay [3] were 0.06 µM, 0.03 µM and 0.2 µM, respectively.
